Our source for the IC50 values is patent US8778941B2, “TRPM8 antagonists and their use in treatments” (AMGEN Inc., priority 2011, dated 2014).

The experiment addresses T1, human TRPM8 (Homo sapiens, UniProt Q7Z2W7).
T1 construct: expressed in transfected cells; host or cells: Chinese hamster ovary (CHO) cells, T-REx tetracycline-inducible expression system (Invitrogen), co-transfected with pcDNA3.1 jellyfish aequorin
The experiment in a line: Luminescence readout assay for measuring intracellular calcium (aequorin), hTRPM8 antagonism. It counts as cell-based. The following applies: CHO cell line expressing human TRPM8 and aequorin; activation by icilin, L-menthol or cold buffer (table does not say which). As to the method:
Luminescence Readout Assay for Measuring Intracellular Calcium.
A stable Chinese hamster ovary cell line expressing human TRPM8 was generated using tetracycline inducible T-REx™ expression system from Invitrogen, Inc. (Carlsbad, Calif.). […] Twenty four hours before the assay, cells were seeded in 96-well plates and TRPM8 expression was induced with 0.5 μg/mL tetracycline. […] Potential antagonists were added 2.5 min prior to the addition of agonist, […], 100 µM L-menthol, or 1 min prior to the addition of cold buffer (<10° C.). The luminescence was measured by a CCD camera based FLASH-luminometer built by Amgen, Inc. A cooling device attached to FLASH luminometer was used for cold activation.

T1 sequence (Q7Z2W7 whole entry): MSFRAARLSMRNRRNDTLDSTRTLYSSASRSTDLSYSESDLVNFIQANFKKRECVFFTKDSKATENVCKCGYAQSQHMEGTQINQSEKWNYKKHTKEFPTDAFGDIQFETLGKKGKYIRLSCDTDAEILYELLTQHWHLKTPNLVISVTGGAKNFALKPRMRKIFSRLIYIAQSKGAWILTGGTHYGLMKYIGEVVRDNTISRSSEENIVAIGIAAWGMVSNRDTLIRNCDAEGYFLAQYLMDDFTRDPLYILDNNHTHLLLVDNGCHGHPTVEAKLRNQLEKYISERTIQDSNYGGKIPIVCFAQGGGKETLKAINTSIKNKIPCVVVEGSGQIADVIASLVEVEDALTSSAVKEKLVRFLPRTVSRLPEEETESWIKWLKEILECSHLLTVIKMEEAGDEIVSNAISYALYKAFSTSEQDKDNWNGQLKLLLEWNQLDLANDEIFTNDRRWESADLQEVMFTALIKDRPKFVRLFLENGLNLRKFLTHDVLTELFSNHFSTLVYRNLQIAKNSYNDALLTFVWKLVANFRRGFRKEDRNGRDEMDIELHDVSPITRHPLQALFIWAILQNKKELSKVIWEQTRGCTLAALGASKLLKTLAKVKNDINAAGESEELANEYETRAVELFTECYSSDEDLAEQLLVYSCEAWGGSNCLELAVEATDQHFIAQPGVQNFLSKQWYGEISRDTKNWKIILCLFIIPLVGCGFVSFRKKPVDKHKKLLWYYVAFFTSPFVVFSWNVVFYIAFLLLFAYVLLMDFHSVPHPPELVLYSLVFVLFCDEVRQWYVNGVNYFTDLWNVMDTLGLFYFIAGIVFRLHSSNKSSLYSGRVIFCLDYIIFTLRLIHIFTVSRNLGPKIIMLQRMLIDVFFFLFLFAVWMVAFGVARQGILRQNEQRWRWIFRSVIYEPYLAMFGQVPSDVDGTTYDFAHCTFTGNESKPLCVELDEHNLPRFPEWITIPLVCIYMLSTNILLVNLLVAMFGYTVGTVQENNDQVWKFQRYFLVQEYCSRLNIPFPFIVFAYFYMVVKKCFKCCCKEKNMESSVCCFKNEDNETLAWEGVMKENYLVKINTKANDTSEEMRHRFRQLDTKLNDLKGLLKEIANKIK

As to `O=C(Nc1cccnc1)N[C@@H](c1ccc2ncccc2c1)c1ncccc1C(F)(F)F` [Example 17, (S)-1-(pyridin-3-yl)-3-(quinolin-6-yl(3-(trifluoro-methyl)-pyridin-2-yl)-methyl)urea], the 50% inhibitory concentration (IC50) worked out at 811 nM.

With `COc1ccc2cc([C@H](NC(=O)Nc3cccnc3)c3ncccc3C(F)(F)F)cnc2c1` [Example 18, (S)-1-((7-methoxy-quinolin-3-yl)-(3-(trifluoro-methyl)-pyridin-2-yl)-methyl)-3-(pyridin-3-yl)-urea], the 50% inhibitory concentration (IC50) came to 308 nM.

On to `O=C(Nc1cccnc1)N[C@@H](c1ccc(F)cc1)c1ncccc1C(F)(F)F` [Example 19, (S)-((4-fluorophenyl)-(3-(trifluoro-methyl)-pyridin-2-yl)-methyl)-3-(pyridin-3-yl)-urea], for which the 50% inhibitory concentration (IC50) was 382 nM.

Take `O=C(Nc1cccnc1)N[C@@H](c1ccccc1)c1ncccc1C(F)(F)F` [Example 20, (S)-1-(phenyl(3-(trifluoro-methyl)-pyridin-2-yl)-methyl)-3-(pyridin-3-yl)-urea]: the IC50 is 1310 nM.

For the compound `O=C(Nc1cccnc1)NC(c1ccc(F)c(C(F)(F)F)c1)c1ncccc1C(F)(F)F` (stereo not shown) [Example 21, 1-((4-fluoro-3-(trifluoro-methyl)-phenyl)(3-(trifluoro-methyl)-pyridin-2-yl)-methyl)-3-(pyridin-3-yl)-urea (2,2,2-trifluoro-acetate)], the IC50 is 178 nM.

With `O=C(Nc1cccnc1)NC(c1ccc(F)c(C(F)(F)F)c1)c1ncccc1F` (stereo not shown) [Example 22, 1-((4-fluoro-3-(trifluoro-methyl)-phenyl)(3-fluoropyridin-2-yl)methyl)-3-(pyridin-3-yl)urea (2,2,2-trifluoro-acetate)], the IC50 worked out at 201 nM.

With `O=C(Nc1cccnc1)NC(c1cc(F)cc(Cl)c1)c1ncccc1C(F)(F)F` (stereo not shown) [Example 23, 1-((3-chloro-5-fluoro-phenyl)(3-(trifluoro-methyl)-pyridin-2-yl)-methyl)-3-(pyridin-3-yl)-urea (2,2,2-trifluoro-acetate)], the IC50 came out at 255 nM.

Regarding `O=C(Nc1cccnc1)NC(c1cc(F)cc(Cl)c1)c1ncccc1F` (stereo not shown) [Example 24, 1-((3-chloro-5-fluoro-phenyl)(3-fluoropyridin-2-yl)methyl)-3-(pyridin-3-yl)urea (2,2,2-trifluoro-acetate)], the 50% inhibitory concentration (IC50) amounted to 674 nM.

With `O=C(Nc1cccnc1)NC(c1ccc(C(F)(F)F)nc1)c1ncccc1C(F)(F)F` (stereo not shown) [Example 25, 1-(pyridin-3-yl)-3-((3-(trifluoro-methyl)-pyridin-2-yl)-(6-(trifluoro-methyl)-pyridin-3-yl)-methyl)urea (2,2,2-trifluoro-acetate)], the 50% inhibitory concentration (IC50) was determined as 216 nM.

For `O=C(Nc1cccnc1)N[C@@H](c1ccc(Cl)cc1)c1ncccc1C(F)(F)F` [Example 26, (S)-1-((4-chlorophenyl)-(3-(trifluoro-methyl)-pyridin-2-yl)-methyl)-3-(pyridin-3-yl)-urea], the half-inhibitory concentration (IC50) came to 248 nM.

`CCc1ccc([C@H](NC(=O)Nc2cccnc2)c2ncccc2C(F)(F)F)cc1` [Example 27, (S)-1-((4-ethylphenyl)-(3-(trifluoro-methyl)-pyridin-2-yl)-methyl)-3-(pyridin-3-yl)-urea]: the IC50 turned out to be 41 nM.

As to `O=C(Nc1cccnc1)N[C@@H](c1ccc(C(F)(F)F)cc1)c1ncccc1Br` [Example 28, (S)-1-((3-bromopyridin-2-yl)(4-(trifluoro-methyl)-phenyl)-methyl)-3-(pyridin-3-yl)-urea], the IC50 came to 67 nM.

For `O=C(Nc1cccnc1)N[C@@H](c1ccc(C(F)(F)F)cc1)c1ccccn1` [Example 30, (S)-1-(pyridin-2-yl(4-(trifluoro-methyl)-phenyl)-methyl)-3-(pyridin-3-yl)-urea], the half-maximal inhibitory concentration (IC50) was 97 nM.

`O=C(Nc1ccccc1)N[C@@H](c1ccc(C(F)(F)F)cc1)c1ncccc1C(F)(F)F` [Example 31, (S)-1-phenyl-3-((4-(trifluoro-methyl)-phenyl)(3-(trifluoro-methyl)-pyridin-2-yl)-methyl)urea]: the IC50 was determined as 81 nM.

As for `CC(C)NC(=O)N[C@@H](c1ccc(C(F)(F)F)cc1)c1ncccc1C(F)(F)F` [Example 32, (S)-1-isopropyl-3-((4-(trifluoro-methyl)-phenyl)(3-(trifluoro-methyl)-pyridin-2-yl)-methyl)urea], the half-inhibitory concentration (IC50) came to 66 nM.

For `C[C@H](NC(=O)N[C@@H](c1ccc(C(F)(F)F)cc1)c1ncccc1C(F)(F)F)c1cccc2ccccc12` [Example 33, 1-((S)-1-(naphthalen-1-yl)ethyl)-3-((S)-(4-(trifluoro-methyl)-phenyl)(3-(trifluoro-methyl)-pyridin-2-yl)-methyl)urea (2,2,2-trifluoro-acetate)], the half-maximal inhibitory concentration (IC50) stood at 1900 nM.

Regarding `O=C(NCCCc1ccccc1)N[C@@H](c1ccc(C(F)(F)F)cc1)c1ncccc1C(F)(F)F` [Example 34, (S)-1-(3-phenylpropyl)-3-((4-(trifluoro-methyl)-phenyl)(3-(trifluoro-methyl)-pyridin-2-yl)-methyl)urea (2,2,2-trifluoro-acetate)], the IC50 stood at 127 nM.

For the compound `O=C(NC(=O)Oc1ccccc1)N[C@@H](c1ccc(C(F)(F)F)cc1)c1ncccc1C(F)(F)F` [Example 35, (S)-1-(phenyl-formate)-3-((4-(trifluoro-methyl)-phenyl)(3-(trifluoro-methyl)-pyridin-2-yl)-methyl)urea (2,2,2-trifluoro-acetate)], the IC50 stood at 1710 nM.

`O=C(NCCc1ccc2c(c1)OCO2)N[C@@H](c1ccc(C(F)(F)F)cc1)c1ncccc1C(F)(F)F` [Example 36, (S)-1-(2-(benzo[d][1,3]dioxol-5-yl)-ethyl)-3-((4-(trifluoro-methyl)-phenyl)(3-(trifluoro-methyl)-pyridin-2-yl)-methyl)urea (2,2,2-trifluoro-acetate)]: the IC50 is 390 nM.

As to `O=C(Nc1cccc(Br)c1)N[C@@H](c1ccc(C(F)(F)F)cc1)c1ncccc1C(F)(F)F` [Example 37, (S)-1-(3-bromophenyl)-3-((4-(trifluoro-methyl)-phenyl)(3-(trifluoro-methyl)-pyridin-2-yl)-methyl)urea (2,2,2-trifluoro-acetate)], the IC50 was found to be 4080 nM.

Regarding `CCOC(=O)CNC(=O)N[C@@H](c1ccc(C(F)(F)F)cc1)c1ncccc1C(F)(F)F` [Example 38, (S)-ethyl 2-(3-((4-(trifluoro-methyl)-phenyl)(3-(trifluoro-methyl)-pyridin-2-yl)-methyl)-ureido)acetate (2,2,2-trifluoro-acetate)], the IC50 worked out at 1500 nM.

Regarding `O=C(Nc1ccc2occc2c1)N[C@@H](c1ccc(C(F)(F)F)cc1)c1ncccc1C(F)(F)F` [Example 39, (S)-1-(benzofuran-5-yl)-3-((4-(trifluoro-methyl)-phenyl)(3-(trifluoro-methyl)-pyridin-2-yl)-methyl)urea (2,2,2-trifluoro-acetate)], the half-inhibitory concentration (IC50) was 4090 nM.

`CC(C)(C)NC(=O)N[C@@H](c1ccc(C(F)(F)F)cc1)c1ncccc1Br` [Example 41, (S)-1-((3-bromopyridin-2-yl)(4-(trifluoro-methyl)-phenyl)-methyl)-3-(tert-butyl)-urea]: the IC50 was 122 nM.

For the compound `CC#Cc1cccnc1[C@@H](NC(=O)NC(C)(C)C)c1ccc(C(F)(F)F)cc1` [Example 42, (S)-1-(tert-butyl)-3-((3-(prop-1-yn-1-yl)pyridin-2-yl)(4-(trifluoro-methyl)-phenyl)-methyl)urea], the IC50 was 107 nM.

For the compound `C=CCc1cccnc1[C@@H](NC(=O)Nc1cccnc1)c1ccc(C(F)(F)F)cc1` [Example 43, (S)-1-((3-allylpyridin-2-yl)(4-(trifluoromethyl)phenyl)-methyl)-3-(pyridin-3-yl)urea], the IC50 was determined as 22 nM.

Regarding `CC(C)(C)NC(=O)N[C@@H](c1ccc(C(F)(F)F)cc1)c1ncccc1C(F)(F)F` [Example 45, (S)-1-(tert-butyl)-3-((4-(trifluoro-methyl)-phenyl)(3-(trifluoro-methyl)-pyridin-2-yl)-methyl)urea], the IC50 is 53 nM.

On to `N#Cc1ccc(NC(=O)N[C@@H](c2ccc(C(F)(F)F)cc2)c2ncccc2C(F)(F)F)cc1` [Example 46, (S)-1-(4-cyanophenyl)-3-((4-(trifluoro-methyl)-phenyl)(3-(trifluoro-methyl)-pyridin-2-yl)-methyl)urea], for which the IC50 came to 3560 nM.

Regarding `O=C(Nc1ccc(F)cc1)N[C@@H](c1ccc(C(F)(F)F)cc1)c1ncccc1C(F)(F)F` [Example 47, (S)-1-(4-fluorophenyl)-3-((4-(trifluoro-methyl)-phenyl)(3-(trifluoro-methyl)-pyridin-2-yl)-methyl)urea], the IC50 was determined as 98 nM.

With `O=C(Nc1ccc(F)cc1F)N[C@@H](c1ccc(C(F)(F)F)cc1)c1ncccc1C(F)(F)F` [Example 48, (S)-1-(2,4-difluoro-phenyl)-3-((4-(trifluoro-methyl)-phenyl)(3-(trifluoro-methyl)-pyridin-2-yl)-methyl)urea], the half-inhibitory concentration (IC50) was found to be 2280 nM.

Turning to `O=C(Nc1cc(F)cc(F)c1)N[C@@H](c1ccc(C(F)(F)F)cc1)c1ncccc1C(F)(F)F` [Example 49, (S)-1-(3,5-difluoro-phenyl)-3-((4-(trifluoro-methyl)-phenyl)(3-(trifluoro-methyl)-pyridin-2-yul)-methyl)urea], the IC50 was determined as 558 nM.

Take `O=C(Nc1c(F)cccc1F)N[C@@H](c1ccc(C(F)(F)F)cc1)c1ncccc1C(F)(F)F` [Example 50, (S)-1-(2,6-difluoro-phenyl)-3-((4-(trifluoro-methyl)-phenyl)(3-(trifluoro-methyl)-pyridin-2-yl)-methyl)urea]: the half-inhibitory concentration (IC50) came to 209 nM.
